Read-outs that look alike come from different tables or passages of the source. No end group written: not given here.
Assays:
[1] = tested on: MCF7 cells (human MUC1^+ breast cancer cell line); assay: Standard 51Cr CTL assay after immunisation of HLA-A2/K^b transgenic mice; type: in vivo, mouse; conditions: HLA-A2 transgenic mice immunised with peptide-KLH-oxidised mannan
Experimental: Peptide was coupled to KLH via glutaraldehyde. In brief, 2 mg KLH in 1 ml phosphate buffer saline (PBS) and 2 mg peptide in 1 ml PBS were mixed and added dropwise to 1 ml of 0.75% glutaraldehyde, and reacted overnight at room temperature. Glutaraldehyde is a bi-functional coupling reagent that links two compounds through their amino groups.
14 mg mannan was dissolved in 1 ml sodium phosphate buffer (pH 6), followed by the addition of 100 μl 0.1 M sodium periodate (dissolved in pH 6 phosphate buffer) and incubated on ice for 1 hour in the dark. 10 μL ethanediol was then added to the mixture and incubated for a further 30 mins on ice. The resultant mixture (oxidised mannan) was passed through a PD-10 column (Sephadex G-25 M column) pre-equilibrated in pH 9.0 phosphate buffer, to exclude out sodium periodate and ethanediol. Oxidised mannan (7 mg/ml) was eluted with 2 ml of pH 9 phosphate buffer, to which 1 mg peptide-KLH was added and allowed to react overnight at room temperature in the dark. Conjugation occurs via Schiff base formation between free amino groups of KLH and oxidised mannan. Samples were used without further purification. […]
HLA-A2/K^b transgenic mice were immunised with 5 μg of peptide intraperitoneally on days 0, 10, 17 and 7-10 days later CTL responses were measured using standard CTL assay as previously described.

soluble H-2K^b = biological target: T1, soluble H-2K^b (Mus musculus, UniProt P01901); assay: Affinity measurements for binding of peptides to soluble H-2K^b (inhibition assay); conditions: for increase in peptide affinity compared to MUC1-8 (competition studies): discussion, temperature not stated
T1 construct: heavy chain residues 1-274 with C-terminal His-tag and β2-microglobulin residues 1-99; His-tag (C); made in house; host or cells: Drosophila melanogaster cells
T1 sequence (P01901 22-295): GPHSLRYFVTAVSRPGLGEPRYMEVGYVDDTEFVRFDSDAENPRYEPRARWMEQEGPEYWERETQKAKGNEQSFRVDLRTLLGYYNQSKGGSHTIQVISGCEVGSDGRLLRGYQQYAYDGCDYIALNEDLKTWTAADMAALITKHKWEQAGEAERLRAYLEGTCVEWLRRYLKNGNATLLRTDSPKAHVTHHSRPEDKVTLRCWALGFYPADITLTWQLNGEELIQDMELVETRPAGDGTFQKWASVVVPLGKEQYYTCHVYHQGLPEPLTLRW
T1 sequence (P01887 21-119 partner): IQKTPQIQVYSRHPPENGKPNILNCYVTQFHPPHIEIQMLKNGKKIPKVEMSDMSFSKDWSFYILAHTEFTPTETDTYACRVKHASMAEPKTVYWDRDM
Experimental: The soluble extracellular domains of H-2K^b (heavy chain […]-terminal His-tag and β2-microglobulin […]. melanogaster cells, under the control of a metallothionein promoter as previously described. Briefly, D. melanogaster cells were expanded to large scale (up to 6 L) in serum free Insect Xpress® media (Cambrex Corporation, East Rutherford, N.J., United States of America) and CuSO4 (625 μM final concentration) was added 3-5 days before harvesting to induce expression of H-2K^b. The supernatant was concentrated using a […] tangential flow concentrator (PALL Corporation, East Hills, N.Y., United States of America) using a 10 kDa MWCO membrane (PALL) and then loaded onto an Ni-NTA column and eluted using 10-250 mM imidazole buffer gradient, pH 7.5. […] Affinity measurements for binding of peptides to soluble H-2K^b molecules were performed as previously described.

[2] = biological target: T2, MHC class I, H-2K^b on RMA-S cells (Mus musculus, UniProt P01901); assay: Peptide stabilisation assay using RMA-S cells (FACScan); type: cell-based, murine; conditions: TAP2-deficient RMA-S cells at 26° C.
T2 construct: MHC class I molecules in the murine cell line RMA-S; endogenous in cells; host or cells: RMA-S (murine, C57BL/6, TAP2-deficient)
T2 sequence (P01901 22-369): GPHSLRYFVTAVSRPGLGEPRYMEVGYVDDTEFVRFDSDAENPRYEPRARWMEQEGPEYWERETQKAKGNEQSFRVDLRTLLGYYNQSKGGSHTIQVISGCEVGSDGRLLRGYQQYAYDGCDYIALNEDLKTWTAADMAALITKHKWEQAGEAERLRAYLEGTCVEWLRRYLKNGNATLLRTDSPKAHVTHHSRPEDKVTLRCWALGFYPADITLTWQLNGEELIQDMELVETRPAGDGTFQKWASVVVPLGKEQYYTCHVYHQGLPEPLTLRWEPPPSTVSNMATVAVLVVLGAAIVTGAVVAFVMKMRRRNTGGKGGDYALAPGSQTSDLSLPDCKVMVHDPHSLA
T2 sequence (P01887 21-119 partner): T1 sequence (P01887 21-119 partner)
Experimental: MHC class I molecules in the murine cell line RMA-S (C57BL/6 TAP2-deficient cells) can be used to measure the direct binding of peptides to class I molecules in vitro. RMA-S cells (5×10^5 cells) were incubated with peptides (10^−4-10^−13 M) at 26° C. for 3 hr then transferred to 37° C. for 30 min. After washing with 0.5% BSA/PBS (2 ml), anti-H-2K^b (HB-158) IgG2a as supernatant (1/50 dilution, 100 μl) was added to RMA-S peptide loaded cells and incubated for 45 minutes at 4° C. The cells were washed once again and 100 μl (1:500 dilution) of FITC-conjugated sheep (Fab′)2 anti-mouse immunoglobulin was added and incubated for 45 min at 4° C.; after further washing, cells were analyzed by FACScan.

C57BL/6 mice = assay: IFN-γ ELISpot on splenocytes of C57BL/6 mice immunised with peptide-pulsed DC; type: in vivo, mouse
Experimental: (§1) C57BL/6 (H-2^b) or MUC1×HLA-A2 (H-2^b/H-2^d/HLA-A2) transgenic 6-8 week old mice were used. Bone marrow cells from C57BL/6 or MUC1×HLA-A2 female mice were cultured at 1×10^6 cells/ml in tissue culture media, supplemented with 10 ng/ml GM-CSF/IL-4. At day 6, cells were washed, re-suspended in the same culture media and 20 μg/ml peptides were loaded on DCs for 3 hr. Pulsed DC were washed and 100 μl (1-2×10^6 cells) injected intradermally in female mice into the base of tail. After 14 days mice were boosted and 16 days later splenocytes assessed by ELISpot.
(§2) To assess peptide specific IFN-γ production by CD8^+ T cells to each peptide, splenocytes from immunised mice were used in IFN-γ ELISpot assays. Spleen cells were incubated with 10^−5-10^−10 M of each MUC1 peptide, irrelevant peptide (OVA8, […]; SEQ ID NO: 8) or internal positive control concanavalin A (ConA) for 18 hr at 37° C., 8% CO2 on nitrocellulose plates [pre-coated with an anti-murine IFN-γ monoclonal antibody]. Plates were developed as previously described.

[3] = tested on: MUC1×HLA-A2 transgenic mice; assay: IFN-γ ELISpot on splenocytes of MUC1×HLA-A2 transgenic mice immunised with peptide-pulsed DC; type: in vivo, mouse; conditions: for recognition of all peptides higher than MUC1-8: MUC1×HLA-A2 transgenic mice
Experimental: as §1, §2

[4] = tested on: MCF7 cells (human MUC1^+ breast cancer cell line); conditions: HLA-A2 transgenic mice; previous studies [59]; cited from earlier work
HLA-A2 = HLA-A2 (Homo sapiens, UniProt P04439, D140Y/D185E/D98H/E176V/E277Q/G131W/G231S/I119V/I121R/I166T/I218V/L10V/L300P/L318F/N151K/N90K/P208A/P217A/Q86G/Q94H/R138H/R169H/T345S); conditions: cited from earlier work
[5] = 4° C., means of 5 values, SE 10-15%, read-out: KD 4° C.
[6] = 23° C., means of 5 values, SE 10-15%, read-out: KD 23° C.
[7] = 37° C., means of 5 values, SE 10-15%, read-out: KD 37° C.

| Molecule | Kd (soluble H-2K^b; [5]) | Kd (soluble H-2K^b; [6]) | Kd (soluble H-2K^b; [7]) | increase in peptide affinity compared to MUC1-8 (competition studies) (soluble H-2K^b) | peptide concentration at which H-2K^b was stabilised [2] | also measured |
| --- | --- | --- | --- | --- | --- | --- |
| TTAPPVHGL-KLH-oxidised mannan: peptide TTAPPVHGL coupled to KLH via glutaraldehyde and then to oxidised mannan (also: conjugated to KLH, conjugated to oxidised mannan) |  |  |  |  |  | CTL lysis of MCF7 cells, in words [1]: able to specifically lyse MCF7 cells |
| TTAPPVHGL (Artifical sequence derived from human or mouse MUC1 T cell epitope) |  |  |  |  |  | CTL lysis of MCF7 cells, in words [1]: lysed MCF7 cells similarly to STAPPAHGV |
| SAPDFRPL [MUC1-8-5F8L] | 0.16 µM | 0.06 µM | 0.3 µM | 14 fold | > 10^−9 M | increased peptide affinity by mutation of MUC1-8 (soluble H-2K^b; at 23° C.): 14 fold; T cell response by IFN-γ ELISpot, in words (C57BL/6 mice; C57BL/6 mice): the number of sfu/500,000 was higher; precursor frequency (C57BL/6 mice; after immunisation, mouse strain not given): 400 sfu/500,000 cells; T cell response by IFN-γ ELISpot, in words ([3]; MUC1×HLA-A2 transgenic mice (MUC1-8 is self)): generated even higher affinity T cells which recognised all peptides |
| SAPDFRPA [MUC1-8-5F] | 0.46 µM | 0.13 µM | 4.9 µM | 7 fold | > 10^−7 M | increased peptide affinity by mutation of MUC1-8 (soluble H-2K^b; at 23° C. and 37° C.): at least 7 fold; recognition of all peptides higher than MUC1-8 [3]: 10 fold |
| SAPDTRPL [MUC1-8-8L] | 0.15 µM | 0.25 µM | 8.9 µM | 3 fold | > 10^−6 M | increased peptide affinity by mutation of MUC1-8 (soluble H-2K^b; at 23° C. and 37° C.): at least 3 fold; peptide concentration at which IFN-γ secreting T cells recognised all peptides (C57BL/6 mice; C57BL/6 mice immunised with peptide-pulsed DC): 10^−9-10^−5 M; recognition of all peptides higher than MUC1-8 [3]: 10 fold |
| CC[C@H](C)[C@H](NC(=O)[C@@H](NC(=O)[C@@H](N)CO)[C@@H](C)CC)C(=O)N[C@@H](CC(N)=O)C(=O)N[C@@H](Cc1ccccc1)C(=O)N[C@@H](CCC(=O)O)C(=O)N[C@@H](CCCCN)C(=O)N[C@@H](CC(C)C)C(=O)O [OVA8, reference compound] | 0.006 µM | 0.01 µM |  |  |  |  |
| CC(C)C[C@H](NC(=O)CNC(=O)[C@H](CCC(N)=O)NC(=O)[C@H](Cc1ccc(O)cc1)NC(=O)[C@@H](NC(=O)[C@H](Cc1ccc(O)cc1)NC(=O)CNC(=O)[C@@H](N)CCCNC(=N)N)C(C)C)C(=O)O [VSV8, reference compound] |  |  |  |  |  | Kd (soluble H-2K^b; KD 4° C.): 0.034 µM; Kd (soluble H-2K^b; KD 23° C.): 0.027 µM; Kd (soluble H-2K^b; KD 37° C.): 0.163 µM |
| DLHWASWV-KLH-oxidised mannan: mimic mutant peptide DLHWASWV conjugated to KLH and oxidised mannan, used as control (also: conjugated to KLH and oxidised mannan) |  |  |  |  |  | CTL lysis of MCF7 cells, in words [4]: able to specifically lyse MCF7 cells |
| STAPPAHGV (listed as Homo sapiens) |  |  |  |  |  | binding affinity to HLA-A2, in words (HLA-A2): low-medium affinity |
| SAPDTRPA [MUC1-8, reference compound] | 0.433 µM | 0.877 µM | 37 µM |  |  | Kd (soluble H-2K^b; 4° C., read-out: affinity measured in an inhibition assay): 0.43 µM; Kd (soluble H-2K^b; 23° C., read-out: affinity measured in an inhibition assay): 0.87 µM |

Reference: US20090317414A1, “CANCER VACCINE COMPRISING A MUCIN 1 (MUC1) T CELL EPITOPE-DERIVED PEPTIDE” (4G VACCINES PTY LTD, priority 2006, published 2009)
